For one data set, the target named is T1, human COX-II (Homo sapiens, UniProt P35354).
T1 construct: made in house; host or cells: SF9 insect cells, recombinant baculovirus (pVL1393); coding fragment from Caymen Chemical, Ann Arbor, Mich
T1 sequence (P35354 18-604): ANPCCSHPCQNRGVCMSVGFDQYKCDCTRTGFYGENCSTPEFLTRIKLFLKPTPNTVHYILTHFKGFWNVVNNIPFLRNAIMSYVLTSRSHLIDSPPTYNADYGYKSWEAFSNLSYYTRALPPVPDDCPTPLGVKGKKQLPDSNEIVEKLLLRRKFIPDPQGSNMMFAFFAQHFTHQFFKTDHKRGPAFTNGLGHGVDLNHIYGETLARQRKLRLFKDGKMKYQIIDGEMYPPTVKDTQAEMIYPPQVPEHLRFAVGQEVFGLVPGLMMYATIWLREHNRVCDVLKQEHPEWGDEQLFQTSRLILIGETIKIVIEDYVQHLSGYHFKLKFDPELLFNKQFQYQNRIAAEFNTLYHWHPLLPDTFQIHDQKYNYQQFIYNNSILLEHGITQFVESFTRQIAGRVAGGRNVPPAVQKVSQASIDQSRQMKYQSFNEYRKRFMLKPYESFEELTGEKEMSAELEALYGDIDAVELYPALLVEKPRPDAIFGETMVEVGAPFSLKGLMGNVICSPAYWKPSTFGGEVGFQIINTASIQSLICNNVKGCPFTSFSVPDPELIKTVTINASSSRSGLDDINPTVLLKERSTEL
As to the kind of experiment: Human Enzyme Assay, COX-II (recombinant enzyme, PGE2 ELISA). Format: biochemical. The note with it: 10 μM arachidonic acid, 10-20 min pre-incubation. How it is done: (§1) The compounds of the invention are evaluated with respect to COX-I and COX-II activity in vitro using an enzyme based assay according to the following assay procedure.
(§2) A 2.0 kb fragment containing the coding region for either human or murine COX-I (Caymen Chemical, Ann Arbor, Mich.), or human or murine COX-II (Caymen Chemical, Ann Arbor, Mich.), was cloned into a BamH1 site of the baculovirus transfer vector pVL1393 (Invitrogen, Palo Alto, Calif.) to generate a baculovirus transfer vector. Recombinant baculoviruses were isolated by transfecting 4 μg of baculovirus transfer vector DNA into SF9 cells (2×10e8) (Invitrogen, Palo Alto, Calif.) along with 200 ng of linearized bacium by the phosphate method. See M. D. Summers et al., "A Manual of Methods for Baculovirus Vectors and Insect Cell Culture Procedure," TEXAS AGRICULTURE EXPERIMENTAL STATION BULLETIN, No. 1555 (1987), which is incorporated herein by reference. Recombinant viruses were purified by three rounds of plaque purification, and high titer (10e7-10e8 pfu/ml) stocks of virus were prepared. […]
(§3) COX activity was assayed as PGE2 formed/μg protein/time using an ELISA (Caymen Chemical, Ann Arbor, Mich.) to detect the prostaglandin E2 released. […] The PGE2 formed was measured by standard ELISA technology (Cayman Chemical, Ann Arbor, Mich.). […]
For orientation: In an ELISA, binding on a coated surface is turned into a signal by an enzyme label.

For the next data set, the target named is T2, human COX-I (Homo sapiens, UniProt P23219).
T2 construct: made in house; host or cells: SF9 insect cells, recombinant baculovirus (pVL1393); coding fragment from Caymen Chemical, Ann Arbor, Mich
As to the kind of experiment: Human Enzyme Assay, COX-I (recombinant enzyme, PGE2 ELISA). Format: biochemical. The settings on record: 10 μM arachidonic acid, 10-20 min pre-incubation. How it is done: as §1, §2, §3

A further data set deals with T3, cellular COX-II (Homo sapiens, UniProt P35354).
T3 construct: stimulated human fetal dermal fibroblasts (HFDF, derived from primary cell cultures); endogenous in cells; host or cells: human fetal dermal fibroblasts (HFDF), primary culture, stimulated overnight with IL-1 beta
T3 sequence (P35354 18-604): T1 sequence (P35354 18-604)
As to the kind of experiment: Cellular COX-II Assay (Cell Fibroblast Assay). In kind it is cell-based. The settings on record: IL-1 beta stimulated human fetal dermal fibroblasts; 20 μM arachidonic acid; PGE2 by ELISA. How it is done:
The results for this assay, as well as for the next assay (COX-II Cell Fibroblast Assay) are expressed in terms of COX-I or II activity as an IC50 value (50% inhibitory concentration), as defined as the amount of prostaglandin E2 (PGE2) formed per protein per time in response to the enzyme substrate arachidonic acid.
The compounds of the invention are evaluated with respect to the inhibition of cellular COX-II in vitro according to the following Cellular COX-II Assay (Cell Fibroblast Assay).
Inhibition of cellular COX-II by test compounds is determined using stimulated human fetal dermal fibroblasts (HFDF, derived from primary cell cultures). […] Supernatants are collected and Prostaglandin E2 (PGE2) production is measured by an enzyme-linked immunosorbent assay (ELISA; antibodies produced by Cayman Chemical Company, Ann Arbor, Mich.). […]
The procedure uses information for indomethacin and the rest of the plate in defining the minimum and maximum response. […] For the other compounds, if a response is measured which is less than the response for the unstimulated wells, then this response may be considered to be another estimate of a minimal response. […]

For data set [1] the following is noted: Futaki et al., Gen. Pharmac. 24, 105 (1993); cited from earlier work.
For data set [2] the following is noted: Futaki et al., Gen. Pharmac. 24, 105 (1993); cited from earlier work. The source holds these as a separate data set.
For a further data set, the system named is COX II enzyme. The note with it: E. Meade et al., J. Biol. Chem. 268, 6610 (1993); cited from earlier work.

Here are results for 4 molecules from US5420343A, “Derivatives of aromatic cyclic alkylethers” (G. D. Searle & Co., priority 1994, dated 1995).

pIC50: −log10 of the molar value.

T2 sequence (P23219 24-599): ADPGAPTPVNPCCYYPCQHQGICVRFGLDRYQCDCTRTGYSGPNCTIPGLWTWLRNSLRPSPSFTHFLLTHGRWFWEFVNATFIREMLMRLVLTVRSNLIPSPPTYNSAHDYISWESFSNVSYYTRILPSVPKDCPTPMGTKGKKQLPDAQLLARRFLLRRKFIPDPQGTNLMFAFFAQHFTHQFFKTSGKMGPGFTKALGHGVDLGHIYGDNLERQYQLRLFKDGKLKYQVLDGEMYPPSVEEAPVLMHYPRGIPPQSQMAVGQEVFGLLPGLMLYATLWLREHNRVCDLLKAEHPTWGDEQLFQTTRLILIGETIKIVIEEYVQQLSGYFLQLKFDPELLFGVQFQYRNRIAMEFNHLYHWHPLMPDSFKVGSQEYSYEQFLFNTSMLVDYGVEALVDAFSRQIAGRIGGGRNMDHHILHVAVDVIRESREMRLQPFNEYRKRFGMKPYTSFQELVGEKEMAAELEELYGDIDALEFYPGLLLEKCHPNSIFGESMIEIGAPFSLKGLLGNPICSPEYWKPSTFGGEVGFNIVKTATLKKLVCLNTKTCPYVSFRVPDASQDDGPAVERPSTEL

With `CC(C)(C)c1cc(C[C@H]2CCC[C@H]2OCC(=O)O)cc(C(C)(C)C)c1` (relative stereo) [Example 7, (cis)-2-[[2-[3,5-bis(1,1-dimethylethyl) -phenylmethyl]cyclopentyl]oxy]-acetic acid], the pIC50 on human COX-II was 5.87; on human COX-I it was less than 4.00.

As to `CC(C)(C)c1cc(C[C@@H]2CCC[C@H]2OCC(=O)O)cc(C(C)(C)C)c1` (relative stereo) [Example 8, (trans)-2-[[2-[3,5-bis(1,1-dimethylethyl) -phenylmethyl]cyclopentyl]oxy]acetic acid], the results for the pIC50 at human COX-II, on human COX-I and against cellular COX-II were less than 4.00, less than 4.00 and 8.70, respectively.

As to `CS(=O)(=O)Nc1ccc([N+](=O)[O-])cc1OC1CCCCC1` [N-(2-cyclohexyloxy-4-nitrophenyl)methanesulfonamide], in data set [1], the anti-inflammatory activity result is “anti-inflammatory”. Moreover, in data set [2], the gastric side effects result is “lacks gastric side effects”.

On to `COc1ccc2cc(CC(=O)O)ccc2c1` [6-methoxy-2-napthylacetic acid], for which the “selective inhibition of COX II enzyme” value in the data set on COX II enzyme is “selectively inhibit the COX II enzyme”.

In general, pIC50 refers to −log10 of the IC50, conventionally taken in molar units.
